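Five compound concentrations were applied to cells in 96-well plates for 48 hours; endpoints were derived by simple linear interpolation of the resulting dose-response curve. GI50 marks 50% less growth.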 Active and inactive are the calls of the source. Rule as the data show it: active = GI50 up to about 1.1 µM and inactive = higher.
Key:
Assay in all cases: NCI anticancer screen, dose series, 48 h
[1] = tested on: MCF7
[2] = tested on: HCC 2998
[3] = tested on: TK-10
[4] = tested on: SNB-19
[5] = tested on: RPMI-8226
[6] = tested on: DU-145
[7] = tested on: SK-MEL-28
[8] = tested on: 786-0
[9] = tested on: SK-MEL-5
[10] = tested on: CCRF-CEM
[11] = tested on: OVCAR-4
[12] = tested on: SF-539
[13] = tested on: NCI-H23
[14] = tested on: HCT-116
[15] = tested on: HOP-92
[16] = tested on: MDA-MB-231
[17] = tested on: Malme-3M
[18] = tested on: UACC-62
[19] = tested on: HT-29
[20] = tested on: OVCAR-8

CC(=O)OCC(=O)O[C@@H]1[C@H]2[C@@H](OC(=O)c3ccccc3)[C@@H](C)C[C@]2(O)[C@H](OC(C)=O)[C@@]2(C)C(OC(C)=O)[C@]1(OC(C)=O)C[C@H]1C(=O)C(C)(C)C[C@@H]12 (stereo not given in full)
GI50 [1]: > 50 µM (inactive) | GI50 [2]: 25.8 µM (inactive) | GI50 [3]: > 50 µM (inactive) | GI50 [4]: > 50 µM (inactive) | GI50 [5]: 13.3 µM (inactive) | GI50 [6]: > 50 µM (inactive) | GI50 [7]: > 50 µM (inactive) | GI50 [8]: > 50 µM (inactive) | GI50 [9]: 31 µM (inactive) | GI50 [10]: > 11.2 µM (inactive) | GI50 [11]: > 34.2 µM (inactive) | GI50 [12]: 34.5 µM (inactive) | GI50 [13]: > 50 µM (inactive) | GI50 [14]: > 50 µM (inactive) | GI50 [15]: > 31.7 µM (inactive) | GI50 [16]: > 50 µM (inactive) | GI50 [17]: 35.9 µM (inactive) | GI50 [18]: > 50 µM (inactive) | GI50 [19]: 25.8 µM (inactive) | GI50 [20]: > 50 µM (inactive)

COC(=O)C1=C(C)NC(C)=C([N+](=O)[O-])C1c1cccc(N=O)c1 (stereo not given)
GI50 [1]: 17.4 µM (inactive) | GI50 [2]: 18.9 µM (inactive) | GI50 [3]: 12.8 µM (inactive) | GI50 [4]: 29.7 µM (inactive) | GI50 [5]: 4.29 µM (inactive) | GI50 [6]: 15.2 µM (inactive) | GI50 [7]: 17.9 µM (inactive) | GI50 [8]: 14.2 µM (inactive) | GI50 [9]: 15.6 µM (inactive) | GI50 [10]: 4.83 µM (inactive) | GI50 [11]: 11.9 µM (inactive) | GI50 [12]: 16.8 µM (inactive) | GI50 [13]: 18.5 µM (inactive) | GI50 [14]: 10.8 µM (inactive) | GI50 [15]: 2.83 µM (inactive) | GI50 [16]: 18.3 µM (inactive) | GI50 [17]: 12.5 µM (inactive) | GI50 [18]: 15.5 µM (inactive) | GI50 [19]: 16.8 µM (inactive) | GI50 [20]: 16.3 µM (inactive)

O=C(O)c1c(CC(Cc2ccccc2)C(=O)O)ccc2c1CCC2 (stereo not given)
GI50 [1]: > 100 µM (inactive) | GI50 [2]: > 100 µM (inactive) | GI50 [3]: > 100 µM (inactive) | GI50 [4]: > 100 µM (inactive) | GI50 [5]: > 100 µM (inactive) | GI50 [6]: > 100 µM (inactive) | GI50 [7]: > 100 µM (inactive) | GI50 [8]: > 100 µM (inactive) | GI50 [9]: > 100 µM (inactive) | GI50 [10]: > 100 µM (inactive) | GI50 [11]: > 100 µM (inactive) | GI50 [12]: > 100 µM (inactive) | GI50 [13]: > 100 µM (inactive) | GI50 [14]: > 100 µM (inactive) | GI50 [15]: > 100 µM (inactive) | GI50 [16]: > 100 µM (inactive) | GI50 [17]: > 100 µM (inactive) | GI50 [18]: 4.11 µM (inactive) | GI50 [19]: > 100 µM (inactive) | GI50 [20]: > 100 µM (inactive)

COc1cc(/C=C2\C(=O)N(c3cc(Cl)ccc3Cl)C(c3ccccc3)S2(=O)=O)cc(OC)c1OC (stereo not given)
GI50 [1]: 27 µM (inactive) | GI50 [2]: > 100 µM (inactive) | GI50 [3]: > 100 µM (inactive) | GI50 [4]: > 100 µM (inactive) | GI50 [5]: 45.4 µM (inactive) | GI50 [6]: > 100 µM (inactive) | GI50 [7]: 63.8 µM (inactive) | GI50 [8]: > 100 µM (inactive) | GI50 [9]: 57.4 µM (inactive) | GI50 [10]: 42.9 µM (inactive) | GI50 [11]: 62.1 µM (inactive) | GI50 [12]: 90.6 µM (inactive) | GI50 [13]: 96.4 µM (inactive) | GI50 [14]: 38.5 µM (inactive) | GI50 [15]: 45.1 µM (inactive) | GI50 [16]: > 100 µM (inactive) | GI50 [17]: 42.9 µM (inactive) | GI50 [18]: 37.2 µM (inactive) | GI50 [19]: 81.5 µM (inactive) | GI50 [20]: > 100 µM (inactive)

C/C1=C\CC[C@@]2(C)O[C@@H]2C[C@@H](C2(C)CO2)CC/C(C)=C/CC1 (stereo not given in full)
GI50 [1]: 21.7 µM (inactive) | GI50 [2]: 15 µM (inactive) | GI50 [3]: 15.4 µM (inactive) | GI50 [4]: 19.4 µM (inactive) | GI50 [5]: 31 µM (inactive) | GI50 [6]: 24.8 µM (inactive) | GI50 [7]: 21.7 µM (inactive) | GI50 [8]: 16.8 µM (inactive) | GI50 [9]: 21.7 µM (inactive) | GI50 [10]: 19.8 µM (inactive) | GI50 [11]: 37.4 µM (inactive) | GI50 [12]: 21.7 µM (inactive) | GI50 [13]: 19.4 µM (inactive) | GI50 [14]: 20.4 µM (inactive) | GI50 [15]: 33.7 µM (inactive) | GI50 [16]: 18.5 µM (inactive) | GI50 [17]: 15.3 µM (inactive) | GI50 [18]: 16 µM (inactive) | GI50 [19]: 34.4 µM (inactive) | GI50 [20]: 19.1 µM (inactive)

O=C(CCc1cccc(O)c1)NCCc1cccc(OCc2ccccc2)c1
GI50 [1]: 18.8 µM (inactive) | GI50 [2]: 17.3 µM (inactive) | GI50 [3]: 24.1 µM (inactive) | GI50 [4]: 22.8 µM (inactive) | GI50 [5]: 16.2 µM (inactive) | GI50 [6]: 27.5 µM (inactive) | GI50 [7]: 16.1 µM (inactive) | GI50 [8]: 25.4 µM (inactive) | GI50 [9]: 16 µM (inactive) | GI50 [10]: 12.6 µM (inactive) | GI50 [11]: 20.1 µM (inactive) | GI50 [12]: 16.8 µM (inactive) | GI50 [13]: 18.9 µM (inactive) | GI50 [14]: 16.7 µM (inactive) | GI50 [15]: 14.9 µM (inactive) | GI50 [16]: 18.5 µM (inactive) | GI50 [17]: 17.6 µM (inactive) | GI50 [18]: 14.3 µM (inactive) | GI50 [19]: 16.6 µM (inactive) | GI50 [20]: 26.7 µM (inactive)

Cn1c(N)c(/C=C/C(=O)Oc2ccccc2)c(=O)n(C)c1=O
GI50 [1]: 47.9 µM (inactive) | GI50 [2]: > 100 µM (inactive) | GI50 [3]: > 100 µM (inactive) | GI50 [4]: 59.3 µM (inactive) | GI50 [5]: > 100 µM (inactive) | GI50 [6]: 99.8 µM (inactive) | GI50 [7]: > 100 µM (inactive) | GI50 [8]: 78.9 µM (inactive) | GI50 [9]: > 100 µM (inactive) | GI50 [10]: > 100 µM (inactive) | GI50 [11]: > 100 µM (inactive) | GI50 [12]: 50.8 µM (inactive) | GI50 [13]: > 100 µM (inactive) | GI50 [14]: > 100 µM (inactive) | GI50 [15]: 22.3 µM (inactive) | GI50 [16]: > 100 µM (inactive) | GI50 [17]: > 100 µM (inactive) | GI50 [18]: > 100 µM (inactive) | GI50 [19]: > 100 µM (inactive) | GI50 [20]: 30.6 µM (inactive)

CN(C)c1ccc(C=c2c3ccccc3n3c2c2c([n+]3C)CCCC2)cc1
GI50 [1]: 0.0491 µM (active) | GI50 [2]: 0.0792 µM (active) | GI50 [3]: 0.207 µM (active) | GI50 [4]: 0.0698 µM (active) | GI50 [5]: 0.0352 µM (active) | GI50 [6]: 0.245 µM (active) | GI50 [7]: 0.542 µM (active) | GI50 [8]: 0.261 µM (active) | GI50 [9]: 0.0687 µM (active) | GI50 [10]: 0.0465 µM (active) | GI50 [11]: 0.255 µM (active) | GI50 [12]: 0.165 µM (active) | GI50 [13]: 0.269 µM (active) | GI50 [14]: 0.0537 µM (active) | GI50 [15]: 0.046 µM (active) | GI50 [16]: 0.575 µM (active) | GI50 [17]: 0.17 µM (active) | GI50 [18]: 0.42 µM (active) | GI50 [19]: 0.114 µM (active) | GI50 [20]: 0.128 µM (active)
